From patent US12161869B2, “Treatment of disorders associated with inflammation” (Galvani Bioelectronics Limited, priority 2017, dated 2024)
Structures can show the parent of a compound that is named as a salt.

System: SpA BF changes during SpN stimulation
Assay: Local lidocaine block of SpN stimulation-induced changes in splenic artery blood flow
Assay type: in vivo, pig
Conditions: 2% lidocaine hydrochloride solution applied locally around the implanted SpN cuff
Method: On the experimental day, the animal was sedated with ketamine (1.5 mg/kg) and midazolam (0.5 mg/kg) administered by intramuscular injection. An intravenous catheter was placed in one auricular vein, and anesthesia was induced by propofol (2 mg/Kg) administered intravenously. An endotracheal tube was placed, and anesthesia was maintained with sevoflurane inhalant combined with continuous rate infusion (CRI) of fentanyl (0.2 μg/Kg/min).
The surgical approach to SpN cuff implantation was as follows. The thoracolumbar junction was supported and slightly elevated using a sand bag. After appropriate surgical preparation (clipping and aseptic scrub with chlorhexidine gluconate and alcohol), the left flank was aseptically draped exposing a 20×25 cm area centered on the second to last rib. A 15 cm skin incision was made in the second to last intercostal space using monopolar electrocautery. The incision was continued through the subcutaneous tissues and intercostal musculature until the peritoneum was exposed. […]
By slight rotation of the splenic visceral base towards the operator, and placing gentle ventral traction on the spleen, the gastrosplenic ligament at the splenic hilum was incised using Metzembaum scissors, exposing the SpA. […] SpA blood flow readings were tested and finally the rib retractors were partially closed and the exposed incision covered with saline-soaked gauze sponges. […]

SMILES: CCN(CC)CC(=O)Nc1c(C)cccc1C [Lidocaine, lidocaine hydrochloride]
- effect on changes in SpA BF caused by SpN stimulation: able to block the changes in SpA BF
